Patent US20150306232A1, “HYDROGELATORS COMPRISING D-AMINO ACIDS” (BRANDEIS UNIVERSITY, priority 2012, published 2015)

Assays:
HeLa cells = assay: MTT cytotoxicity of Npx containing hydrogelators; assay type: cell-based
Description: The HeLa cells in good condition were seeded into 96-well plate (2×10^5 cells/well) in 100 μL of MEM medium with 10% FBS. With 12 hours of incubation at 37° C. and 5% CO2, the HeLa cells were attached to bottom of 96-well plate. Then the medium was replaced by another 100 μL of growth medium that contained serial diluents of our compounds and the cells were incubated at 37° C. and 5% CO2 for additional 72 hours. The compounds were stocked at 10 μM in DMSO, followed by further dilutions with MEM medium. All of these serial diluents were adjusted to contain 0.5% of DMSO.

[1] = rheological measurement of Npx containing hydrogels; assay type: physicochemical; conditions: hydrogel 0.8 wt %
Description: Rheological tests were conducted on TA ARES G2 rheometer with TA Orchestrator Software. 25 mm cone-plate was used during the experiment. 0.2 mL of hydrogel sample was placed on the cone-plate.
The measurement performs at the frequency of 6.28 rad/s (0.1 to 10% strain, frequency=10 rads^−1, 10 points per decade). Sweep mode is “log” and temperature was carried out at 25° C. The critical strain (γc) value was determined from the storage-strain profiles of the hydrogel sample. The strain applied to the hydrogel sample increased from 0.1 to 100% (10 rad/s and 25° C.). Over a certain strain, a drop in the elastic modulus was observed, and the strain amplitude at which storage moduli just begins to decrease by 5% from its maximum value was determined and taken as a measure of the critical strain of the hydrogels, which correspond to the breakdown of the cross-linked network in the hydrogel sample.
The frequency ranges from 200 rad/s to 0.1 rad/s, depending on the viscoelastic properties of each sample. A suitable strain was used to ensure the linearity of dynamic viscoelasticity.

[2] = in vitro release of hydrogelators from hydrogels; assay type: physicochemical; conditions: 0.8 wt % hydrogel, PBS pH 7.4, 37° C., after 24 hours
Description: After studying their drug efficacies, the sustained release of Npx-containing hydrogelators from 0.8 wt % of hydrogels was studied. We incubated 100 μL of hydrogels at 37° C. for 24 hours with 100 μL of PBS buffer solution (pH 7.4), which is refreshed and monitored at 1 h, 2 h, 4 h, 8 h, 12 h, and 24 h. […] After 24 hours, hydrogel 1 slowly and steadily released 6.5% of the hydrogelator. […] Hydrogels 5 and 6 release 35.8% and 31.7% of hydrogelators after 24 h.
To illustrate the in vitro release profile of hydrogelators, we prepared 100 μL of the hydrogels formed by 1 (0.8 wt %, pH 4.0), 2 (0.8 wt %, pH 7.6), 3 (0.8 wt %, pH 7.6), 4 (0.8 wt %, pH 7.6), 5 (0.8 wt %, pH 7.0), and 6 (0.8 wt %, pH 7.0). With the addition of PBS buffer (100 μL, pH 7.4) onto the surface of hydrogels, the gels were incubated at 37° C. for 24 hours. The release solutions (100 μL) were taken and refreshed at […], 2 h, 4 h, 8 h, 12 h, and 24 h, which were detected by analytical HPLC at 276 nm for the quantities of released Npx containing hydrogelators 1, 2, 3, 4, 5, and 6.

## COc1ccc2cc([C@H](C)C(=O)N[C@H](Cc3ccccc3)C(=O)N[C@H](Cc3ccccc3)C(=O)N[C@H](Cc3ccc(O)cc3)C(=O)O)ccc2c1 [compound 2, Npx-ffy]
HeLa cells
  cell proliferation based on the numbers of HeLa cells: no promotion of the cell proliferation
[1]
  critical strain: 1.6%
[1]; 6.28 rad/s
  storage modulus G′: 6.2×10^2 Pa
[2]
  hydrogelator released from hydrogel: 8.0%
